This is an account of results in patent EP0183129A1, “Quinolonecarboxylic acid derivatives” (KYORIN PHARMACEUTICAL CO., LTD., priority 1984, dated 1986).

Molecules are shown by their SMILES. Structures can show the parent of a compound that is named as a salt.

One test has as its system C. difficile I-E. Description: In vitro antibacterial activity, MIC (standard strain). The format is cell-based. To be noted: Clostridioides difficile; C. difficile I-E; 10^6 cells/ml; standard strain; read-out: MIC.
Another test concerns S. pneumoniae 24. The test is described as follows: In vitro antibacterial activity, MIC (clinical isolates). The format is cell-based. To be noted: Streptococcus pneumoniae; S. pneumoniae 24; 10^6 cells/ml; clinical isolate; read-out: MIC.
The test system of the next test is E. coli ML4707. Description: In vivo antibacterial activity against systemic infection in mice. Further details: species or system mice (ICR-S). The following applies: for ED50: Escherichia coli, ML4707, mice (ICR-S), oral, an hour after intraperitoneal infection, challenge dose 2.7 x 10^6 ~ 8.8 x 10^6 cfu/mouse, read-out: ED50 E. coli ML4707; for activity against gram-negative bacterial infections compared with the reference compounds: systemic infection in mice, result in words. Here is the method: Experiment-2 In vivo antibacterial activity against systemic infection in mice (ICR-S)
The infections were produced by intraperitoneal injection of a suspension of the bacterial culture corresponding to the germ studied. The products were administered orally at an hour after the infection.

As usually defined, the MIC is the least concentration at which growth counts as inhibited. In the case of `CCNCC1CCN(c2cc3c(cc2F)c(=O)c(C(=O)O)cn3C2CC2)C1.Cl` (stereo not shown) [Example 7, 1-Cyclopropyl-7-(3-ethylaminomethyl-1-pyrrolidinyl)-6-fluoro-1,4-dihydro-4-oxo-3-quinolinecarboxylic acid hydrochloride], the MIC with C. difficile I-E was 12.5 µg/mL.

Take `CNCC1CCN(c2cc3c(cc2F)c(=O)c(C(=O)O)cn3C2CC2)C1` (stereo not drawn) [Example 9, 1-Cyclopropyl-6-fluoro-1,4-dihydro-7-(3-methylaminomethyl-l-pyrrolidinyl)-4-oxo-3-quinolinecarboxylic acid hydrochloride]: the MIC in the test with C. difficile I-E is 12.5 µg/mL.

With `CCCNCC1CCN(c2c(F)cc3c(=O)c(C(=O)O)cn(C4CC4)c3c2F)C1` (stereo not drawn) [Example 10, 1-Cyclopropyl-6,8-difluoro-1,4-dihydro-4-oxo-7-(3-n-propylaminomethyl-l-pyrrolidinyl)-3-quinolinecarboxylic acid hydrochloride], the MIC in the test on C. difficile I-E turned out to be 6.25 µg/mL.

Take `CC(C)NCC1CCN(c2c(F)cc3c(=O)c(C(=O)O)cn(C4CC4)c3c2F)C1.Cl` (stereo not shown) [Example 11, 1-Cyclopropyl-6,8-difluoro-1,4-dihydro-7-(3-isopropylaminomethyl-1-pyrrolidinyl)-4-oxo-3-quinolinecarboxylic acid hydrochloride]: the MIC with C. difficile I-E turned out to be 3.13 µg/mL.

Usually ED50 stands for the dose that gives a 50% effect, or the effect in half of the subjects. For the molecule `CNCC1CCN(c2c(F)cc3c(=O)c(C(=O)O)cn(C4CC4)c3c2Cl)C1` (stereo not drawn) [Example 12, 8-Chloro-l-cyclopropyl-6-fluoro-1,4-dihydro-7-(3-methylaminomethyl-1-pyrrolidinyl)-4-oxo-3-quinolinecarboxylic acid hydrochloride], the MIC in the test on S. pneumoniae 24 stood at 0.05 µg/mL. For the same molecule, the ED50 with E. coli ML4707 turned out to be 1.9 mg/kg.

On to `NCC1CCN(c2c(F)cc3c(=O)c(C(=O)O)cn(C4CC4)c3c2Cl)C1` (stereo not drawn) [Example 14, 8-Chloro-l-cyclopropyl-6-fluoro-l,4-dihydro-7-(3-aminomethyl-l-pyrrolidinyl)-4-oxo-3-quinolinecarboxylic acid hydrochloride], for which the MIC with S. pneumoniae 24 amounted to 0.05 µg/mL. Moreover, the ED50 in the test on E. coli ML4707 is 5.4 mg/kg.

`NCC1CCN(c2c(F)cc3c(=O)c(C(=O)O)cn(C4CC4)c3c2Br)C1` (stereo not drawn) [Example 15, 7-(3-Aminomethyl-l-pyrrolidinyl)-8-bromo-l-cyclopropyl-6-fluoro-1,4-dihydro-4-oxo-3-quinolinecarboxylic acid]: in the test on E. coli ML4707, the median effective dose (ED50) came to 7.1 mg/kg.

Consider `CNCC1CCN(c2c(F)cc3c(=O)c(C(=O)O)cn(C4CC4)c3c2Br)C1` (stereo not drawn) [Example 16, 8-Bromo-1-cyclopropyl-6-fluoro-1,4-dihydro-7-(3-methylaminomethyl-l-pyrrolidinyl)-4-oxo-3-quinolinecarboxylic acid], for which the ED50 with E. coli ML4707 turned out to be 1.9 mg/kg.

Consider `CCNCC1CCN(c2c(F)cc3c(=O)c(C(=O)O)cn(C4CC4)c3c2Br)C1` (stereo not drawn) [Example 17, 8-Bromo-l-cyclopropyl-7-(3-ethylaminomethyl-l-pyrrolidinyl)-6-fluoro-1,4-dihydro-4-oxo-3-quinolinecarboxylic acid], for which, in the test on E. coli ML4707, the median effective dose (ED50) worked out at 0.9 mg/kg and the “activity against gram-negative bacterial infections compared with the reference compounds” value was “greater activity against gram-negative bacterial infections than the reference compounds”.

Regarding `CN(C)CC1CCN(c2c(F)cc3c(=O)c(C(=O)O)cn(C4CC4)c3c2Cl)C1` (stereo not drawn) [Example 20, 8-Chloro-1-cyclopropyl-6-fluoro-1,4-dihydro-7-(3-dimethylaminomethyl-l-pyrrolidinyl)-4-oxo-3-quinolinecarboxylic acid], the 50% effective dose (ED50) in the test on E. coli ML4707 came to 2.1 mg/kg.

Turning to `CN(C)CC1CCN(c2c(F)cc3c(=O)c(C(=O)O)cn(C4CC4)c3c2F)C1` (stereo not shown) [Example 21, 1-Cyclopropyl-6,8-difluoro-1,4-dihydro-7-(3-dimethylaminomethyl-1-pyrrolidinyl)-4-oxo-3-quinolinecarboxylic acid], in the test with E. coli ML4707, the ED50 turned out to be 1.2 mg/kg and the “activity against gram-negative bacterial infections compared with the reference compounds” value is “greater activity against gram-negative bacterial infections than the reference compounds”.

For the molecule `CCNCC1CCN(c2c(F)cc3c(=O)c(C(=O)O)cn(CC)c3c2F)C1` (stereo not shown) [Ref.1, 1-Ethyl-7-(3-ethylaminomethyl-1-pyrrolidinyl)-6,8-difluoro-1,4-dihydro-4-oxo-3-quinolinecarboxylic acid, reference compound], the ED50 with E. coli ML4707 is more than 10 mg/kg.
